Non-standard residues stand in square brackets, D forms with d. Residues, ends and D or L forms follow the SMILES beside them. Aib = CC(C)(N)C(=O)O
Target: T1, LCAT (purified from human plasma) (Homo sapiens, UniProt P04180)
T1 construct: from tissue; host or cells: human plasma
T1 sequence (P04180 25-440): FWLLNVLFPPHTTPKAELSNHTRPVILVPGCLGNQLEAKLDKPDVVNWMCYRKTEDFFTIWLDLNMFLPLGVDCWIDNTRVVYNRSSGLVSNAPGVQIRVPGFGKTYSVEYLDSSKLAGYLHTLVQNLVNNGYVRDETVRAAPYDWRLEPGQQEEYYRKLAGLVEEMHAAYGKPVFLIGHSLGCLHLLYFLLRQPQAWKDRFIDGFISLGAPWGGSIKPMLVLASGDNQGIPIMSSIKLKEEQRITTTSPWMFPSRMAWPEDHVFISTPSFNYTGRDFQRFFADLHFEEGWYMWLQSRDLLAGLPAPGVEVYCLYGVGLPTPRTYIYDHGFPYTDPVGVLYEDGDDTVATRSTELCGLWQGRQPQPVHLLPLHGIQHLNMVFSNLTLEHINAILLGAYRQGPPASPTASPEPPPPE
Assay: LCAT activation assay
Format: biochemical
Conditions: LCAT activation as compared with native human ApoA-I (= 100%), equivalent masses
How it was run: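 Activity was expressed as percentage conversion of radiolabelled cholesterol to cholesteryl ester, normalised to native ApoA-I as 100%. LCAT purified from human plasma was added to peptide-preincubated EPC or POPC/cholesterol (20:1) small unilamellar vesicles at pH 7.4. Specific activity is the peptide concentration reaching the conversion plateau at a fixed timepoint.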

ACTIVITY (%) LCAT [%] | Compound
0 | CC(C)C[C@H](NC(=O)[C@H](C)NC(=O)[C@H](CCC(=O)O)NC(=O)C(C)(C)NC(=O)C(C)(C)NC(=O)[C@H](CCC(=O)O)NC(=O)[C@H](CC(N)=O)NC(=O)[C@H](CC(C)C)NC(=O)[C@H](CCCCN)NC(=O)[C@H](CCC(=O)O)NC(=O)[C@H](CCCNC(=N)N)NC(=O)[C@H](Cc1ccccc1)NC(=O)[C@H](CCC(=O)O)NC(=O)[C@H](CC(=O)O)NC(=O)[C@H](CC(C)C)NC(=O)[C@@H](NC(=O)[C@@H]1CCCN1)C(C)C)C(=O)N[C@@H](CCCCN)C(=O)N[C@@H](CCC(N)=O)C(=O)N[C@@H](CCCCN)C(=O)N[C@@H](CC(C)C)C(=O)N[C@@H](CCCCN)C(=O)O [compound 110, PVLDEFREKLNEXXEALKQKLK] (H-PVLDEFREKLNE[Aib][Aib]EALKQKLK-OH)
0 | CC(C)C[C@H](NC(=O)[C@H](C)NC(=O)[C@H](CCC(=O)O)NC(=O)[C@H](CO)NC(=O)C(C)(C)NC(=O)[C@H](CCC(=O)O)NC(=O)[C@H](CC(N)=O)NC(=O)[C@H](CC(C)C)NC(=O)[C@H](CCCCN)NC(=O)[C@H](CCC(=O)O)NC(=O)[C@H](CCCNC(=N)N)NC(=O)[C@H](Cc1ccccc1)NC(=O)[C@H](CCC(=O)O)NC(=O)[C@H](CC(=O)O)NC(=O)[C@H](CC(C)C)NC(=O)[C@@H](NC(=O)[C@@H]1CCCN1)C(C)C)C(=O)N[C@@H](CCCCN)C(=O)N[C@@H](CCC(N)=O)C(=O)N[C@@H](CCCCN)C(=O)N[C@@H](CC(C)C)C(=O)N[C@@H](CCCCN)C(=O)O [compound 112, PVLDEFREKLNEXSEALKQKLK] (H-PVLDEFREKLNE[Aib]SEALKQKLK-OH)
0 | CSCC[C@H](NC(=O)C(C)(C)NC(=O)[C@H](CCC(=O)O)NC(=O)[C@H](CC(N)=O)NC(=O)[C@H](CC(C)C)NC(=O)[C@H](CCCCN)NC(=O)[C@H](CCC(=O)O)NC(=O)[C@H](CCCNC(=N)N)NC(=O)[C@H](Cc1ccccc1)NC(=O)[C@H](CCC(=O)O)NC(=O)[C@H](CC(=O)O)NC(=O)[C@H](CC(C)C)NC(=O)[C@@H](NC(=O)[C@@H]1CCCN1)C(C)C)C(=O)N[C@@H](CCC(=O)O)C(=O)N[C@@H](C)C(=O)N[C@@H](CC(C)C)C(=O)N[C@@H](CCCCN)C(=O)N[C@@H](CCC(N)=O)C(=O)N[C@@H](CCCCN)C(=O)N[C@@H](CC(C)C)C(=O)N[C@@H](CCCCN)C(=O)O [compound 114, PVLDEFREKLNEXMEALKQKLK] (H-PVLDEFREKLNE[Aib]MEALKQKLK-OH)
0 | CC(C)C[C@H](NC(=O)[C@H](C)NC(=O)[C@H](CCC(=O)O)NC(=O)[C@H](CC(C)C)NC(=O)C(C)(C)NC(=O)[C@H](CCC(=O)O)NC(=O)[C@H](CC(N)=O)NC(=O)[C@H](CC(C)C)NC(=O)[C@H](CCCCN)NC(=O)[C@H](CCC(=O)O)NC(=O)[C@H](CCCNC(=N)N)NC(=O)[C@H](Cc1ccccc1)NC(=O)[C@H](CCC(=O)O)NC(=O)[C@H](CC(=O)O)NC(=O)[C@H](CC(C)C)NC(=O)[C@H](CCCCN)NC(=O)[C@@H]1CCCN1)C(=O)N[C@@H](CCCCN)C(=O)N[C@@H](CCC(N)=O)C(=O)N[C@@H](CCCCN)C(=O)N[C@@H](CC(C)C)C(=O)N[C@@H](CCCCN)C(=O)O [compound 115, PKLDEFREKLNEXLEALKQKLK] (H-PKLDEFREKLNE[Aib]LEALKQKLK-OH)
0 | CC(C)C[C@H](NC(=O)[C@H](C)NC(=O)[C@H](CCC(=O)O)NC(=O)[C@H](CC(C)C)NC(=O)C(C)(C)NC(=O)[C@H](CCC(=O)O)NC(=O)[C@H](CC(N)=O)NC(=O)[C@H](CC(C)C)NC(=O)[C@H](CCCCN)NC(=O)[C@H](CCC(=O)O)NC(=O)[C@H](CCCNC(=N)N)NC(=O)[C@H](Cc1ccccc1)NC(=O)[C@H](CCC(=O)O)NC(=O)[C@H](CC(=O)O)NC(=O)[C@H](CC(C)C)NC(=O)[C@H](CCC(=O)O)NC(=O)[C@@H]1CCCN1)C(=O)N[C@@H](CCCCN)C(=O)N[C@@H](CCC(N)=O)C(=O)N[C@@H](CCCCN)C(=O)N[C@@H](CC(C)C)C(=O)N[C@@H](CCCCN)C(=O)O [compound 117, PELDEFREKLNEXLEALKQKLK] (H-PELDEFREKLNE[Aib]LEALKQKLK-OH)

More lines, now with the values behind:

Compound | ACTIVITY (%) LCAT [%]
CC(C)C[C@H](NC(=O)[C@H](C)NC(=O)[C@H](CCC(=O)O)NC(=O)[C@H](CC(C)C)NC(=O)C(C)(C)NC(=O)[C@H](CC(C)C)NC(=O)[C@H](CC(N)=O)NC(=O)[C@H](CC(C)C)NC(=O)[C@H](CC(C)C)NC(=O)[C@H](CCC(=O)O)NC(=O)[C@H](CCCNC(=N)N)NC(=O)[C@H](Cc1ccccc1)NC(=O)[C@H](CC(C)C)NC(=O)[C@H](CC(=O)O)NC(=O)[C@H](CC(C)C)NC(=O)[C@@H](NC(=O)[C@@H]1CCCN1)C(C)C)C(=O)N[C@@H](CCCCN)C(=O)N[C@@H](CCC(=O)O)C(=O)N[C@@H](CCCCN)C(=O)N[C@@H](CC(C)C)C(=O)N[C@@H](CCCCN)C(=O)O [compound 102, PVLDLFRELLNLXLEALKEKLK] (H-PVLDLFRELLNL[Aib]LEALKEKLK-OH) | 2
CC(C)C[C@H](NC(=O)[C@H](C)NC(=O)[C@H](CCC(=O)O)NC(=O)[C@H](Cc1c[nH]c2ccccc12)NC(=O)C(C)(C)NC(=O)[C@H](CCC(=O)O)NC(=O)[C@H](Cc1c[nH]c2ccccc12)NC(=O)[C@H](CC(C)C)NC(=O)[C@H](CCCCN)NC(=O)[C@H](CCC(=O)O)NC(=O)[C@H](CCCNC(=N)N)NC(=O)[C@H](Cc1ccccc1)NC(=O)[C@H](CCC(=O)O)NC(=O)[C@H](CC(=O)O)NC(=O)[C@H](CC(C)C)NC(=O)[C@@H](NC(=O)[C@@H]1CCCN1)C(C)C)C(=O)N[C@@H](CCCCN)C(=O)N[C@@H](CCC(N)=O)C(=O)N[C@@H](CCCCN)C(=O)N[C@@H](CC(C)C)C(=O)N[C@@H](CCCCN)C(=O)O [compound 111, PVLDEFREKLWEXWEALKQKLK] (H-PVLDEFREKLWE[Aib]WEALKQKLK-OH) | 0
CC(C)C[C@H](NC(=O)[C@H](C)NC(=O)[C@H](CCC(=O)O)NC(=O)[C@H](CC(C)C)NC(=O)C(C)(C)NC(=O)[C@H](CCC(=O)O)NC(=O)[C@H](CC(N)=O)NC(=O)[C@H](CC(C)C)NC(=O)[C@H](CCCCN)NC(=O)[C@H](CCC(=O)O)NC(=O)[C@H](CCCNC(=N)N)NC(=O)[C@H](Cc1ccccc1)NC(=O)[C@H](CCC(=O)O)NC(=O)[C@H](CC(=O)O)NC(=O)[C@H](CC(C)C)NC(=O)[C@H](Cc1c[nH]cn1)NC(=O)[C@@H]1CCCN1)C(=O)N[C@@H](CCCCN)C(=O)N[C@@H](CCC(N)=O)C(=O)N[C@@H](CCCCN)C(=O)N[C@@H](CC(C)C)C(=O)N[C@@H](CCCCN)C(=O)O [compound 116, PHLDEFREKLNEXLEALKQKLK] (H-PHLDEFREKLNE[Aib]LEALKQKLK-OH) | 0
CC(C)C[C@H](NC(=O)[C@H](C)NC(=O)[C@H](CCC(=O)O)NC(=O)[C@H](CC(C)C)NC(=O)C(C)(C)NC(=O)[C@H](CCC(=O)O)NC(=O)[C@H](CC(N)=O)NC(=O)[C@H](CC(C)C)NC(=O)[C@H](CCCCN)NC(=O)[C@H](CCC(=O)O)NC(=O)[C@H](CCCNC(=N)N)NC(=O)[C@H](Cc1ccccc1)NC(=O)[C@H](CCC(=O)O)NC(=O)[C@H](CC(=O)O)NC(=O)[C@H](CC(C)C)NC(=O)[C@@H](NC(=O)[C@@H]1CCCN1)C(C)C)C(=O)N[C@@H](CCC(=O)O)C(=O)N[C@@H](CCC(N)=O)C(=O)N[C@@H](CCCCN)C(=O)N[C@@H](CC(C)C)C(=O)N[C@@H](CCCCN)C(=O)O [compound 118, PVLDEFREKLNEXLEALEQKLK] (H-PVLDEFREKLNE[Aib]LEALEQKLK-OH) | 0

Reference: patent publication US7273848B2, “Apolipoprotein A-I agonists and their use to treat dyslipidemic disorders” (priority 1997, dated 2007)
